# Source: paper PMC12040169 (PLOS Biology, 2025)
# Experiment: in vitro
# Details: human, hela cells, % viability
row,Structure (SMILES),"viability at 28.5 h, 10 µM [%]"
1,CCCC(=O)N1CCC([C@@H]2C[C@H](C(F)F)n3nc(C)cc3N2)CC1 [CBK284724],97.6
2,CCC(=O)N1CCC[C@@H]1Cn1nc(-c2cccs2)ccc1=O [CBK282304],84.8
3,COc1ccccc1CNC(=O)N[C@@H](CC(C)C)C(=O)O [CBK286722],92.9
4,Nc1ccc2c(-c3ccsc3)ccnc2n1 [CBK067637],95.5
5,CCCCN(C)c1c(CC)nc2ccc(C(=O)NCCN3CCCC3)cn12 [CBK145440],96.2
6,COCc1ccc(-c2nccnc2NS(=O)(=O)c2c(C)noc2C)cc1 [CBK049656],122
7,Cc1nc(C2CCN(Cc3cccc(F)c3)CC2)ncc1C(=O)Nc1ccc(F)cc1 [CBK285668],107
8,COc1ccc(-c2cc(C[C@H]3CNCC[C@H]3CC(=O)N3CCN(C)CC3)no2)cc1 [CBK289152],83.8
9,Cc1cc(S(=O)(=O)N2CCCC2)ccc1OCC(=O)O [CBK268289],89
10,C[C@H](Nc1nccnc1-c1cccc(O)c1)c1ccccc1 [CBK037180],106
11,c1ccc(CNC2(Cc3cc(-c4ccccn4)on3)COC2)cc1 [CBK289643],87.9
12,CC(C)CC(NC(=O)N1CCOc2ccc(Cl)cc2C1)c1ncnn1C (stereo not shown) [CBK306544],115
13,O=C(Nc1ccc(C(F)(F)F)cc1)C1CCCS1 (stereo not shown) [CBK006142],92.5
14,Cc1nc2c(c(=O)[nH]1)CC[C@@H]1CN(C(=O)CCc3ccccc3)C[C@H]21 [CBK284414],95.9
15,CC(C)CN(CC(=O)NC1(c2ccccc2)CCC1)C(=O)N(C)C [CBK062704],96.1
16,CCCCOC(=O)c1c(N)n(-c2ccc(C(=O)O)cc2)c2nc3ccccc3nc12 [CBK265046],94.6
17,CCOc1cc(S(=O)(=O)NCc2ccccn2)ccc1Cl [CBK266817],99.2
18,Nc1nc(CSc2nnc(-c3ccncc3)o2)nc(Nc2ccc(F)cc2)n1 [CBK266221],116
19,CCCC(NC(=O)c1cccc(-n2cnnc2)c1)c1cccs1 (stereo not shown) [CBK282745],102
20,O=C1C2CCCCN2C(=O)N1c1cccnc1 (stereo not shown) [CBK162359],114
21,O=c1[nH]c2ncc(-c3cccc4ccccc34)nc2n1Cc1cccnc1 [CBK064274],102
22,COc1ccc(C(=O)CSc2nnc(C(O)c3ccccc3)n2-c2ccccc2)cc1 (stereo not shown) [CBK265104],109

row,Structure (SMILES),"viability at 28.5 h, 10 µM [%]"
1,COCC(=O)N1CCCC(c2nc(C)n3c(C)csc23)C1 (stereo not shown) [CBK285214],98.7
2,CN1CCN(c2nc(-c3ccc(-c4ccccc4)cc3)cnc2N)CC1 [CBK063421],106
3,O=C(CCn1cnnn1)N1C[C@H]2CC[C@@H]1CN(Cc1cccnc1)C2 [CBK307029],88.9
4,Cc1cc(-c2cn3cc(C(=O)NCCCCO)nc3c(=O)n2C)c(C)o1 [CBK307037],106
5,C=C(C)Cn1c(SCC(C)C)nnc1-c1ccccc1OC [CBK200071],91.5
6,COc1cccc(C(=O)Nc2nn(Cc3ccc(C(F)(F)F)cc3)c3ccccc23)c1 [CBK048273],83.9
7,O=S(=O)(Nc1cccc2[nH]ccc12)c1ccc(F)cc1F [CBK153546],62.2
8,COc1ccc(CNc2cnc3ccccc3c2)c(O)c1 [CBK293951],87.5
9,CCOCC1CCN(C(=O)c2ncsc2Nc2ccccc2)C1 (stereo not shown) [CBK304204],117
10,CC(C(=O)Nc1ccc2oc(-c3ccccc3)nc2c1)(c1ccccc1)c1ccccc1 [CBK263928],91
11,O=S(=O)(Cc1ccc(Cl)cc1)Nc1cccc2[nH]ccc12 [CBK153531],99.5
12,Cc1ccc(NC(=O)COc2ccccc2/C=C/C(=O)O)cc1C [CBK287026],111
13,CN(C)CCn1c2c(c3ccccc31)CCCn1cnnc1-2 [CBK267712C],97.2
14,Cc1cc(C(=O)CSc2ccc(Cl)nn2)c(C)n1C1CC1 [CBK305512],99.2
15,O=C(O)CCc1nc2[nH]c(C(F)F)cc(=O)n2n1 [CBK286880],98.6
16,COc1ccc(Br)cc1S(=O)(=O)Nc1ccsc1C(=O)Nc1ccc(F)cc1 [CBK004593],97.7
17,Cc1cc(C(=O)N2CCN(Cc3ccc(F)cc3Cl)CC2)no1 [CBK268126],100
18,O=S(=O)(Nc1ccc(C(F)(F)F)cc1Cl)c1cc(Br)c(Cl)s1 [CBK057196],78.9
19,NS(=O)(=O)c1cc(C(=O)NCCc2ccc(F)cc2)c(Cl)cc1Cl [CBK288512],96.7
20,Cc1c(C(=O)N(C)Cc2csc(Br)c2)nnn1C1CCNCC1 [CBK304491],104
21,CCN(Cc1ccco1)C(=O)NC1CCCc2c1cnn2CCO (stereo not shown) [CBK305767],101
22,COc1ccc(C(=O)N2CCC3(CCCN(C(=O)c4ccc5[nH]c(=O)[nH]c5c4)C3)C2)cc1OC (stereo not shown) [CBK137086],98.5

row,Structure (SMILES),"viability at 28.5 h, 10 µM [%]"
1,CC(C)Nc1cncc(OCc2ccc(Cl)c(Cl)c2)n1 [CBK115653],87.5
2,CC1(C)Cc2c(sc(NC(=O)Cc3ccccc3)c2C(=O)O)CO1 [CBK264354],110
3,CSc1sc(C(=O)CC#N)c2c1C=CCC2 [CBK006004],91
4,O=C(NCCCn1ccnc1)c1cc(-c2ccc(Br)cc2)nc2ccccc12 [CBK262645],84.8
5,O=S(=O)(NC1CCN(Cc2ccccc2)CC1)c1cccc2nonc12 [CBK062030],94.6
6,O=C(NCc1cccs1)c1ccc2c(=O)n3c(nc2c1)CCN(Cc1ccccc1)CC3 [CBK286448],100
7,Cc1cccc(C)c1NC(=O)CN(Cc1ccccc1)Cc1cc2ccc(C)c(C)c2[nH]c1=O [CBK122696T],94.4
8,COc1cc(/C=C2\NC(=S)NC2=O)c(Cl)cc1O [CBK102003],65.5
9,CN(C)CCN1CCN(c2nc(-c3occc3C=O)cnc2N)CC1 [CBK063917],96.3
10,O=[N+]([O-])c1cc2c(cc1C1NN=C(c3ccccc3)S1)OCO2 (stereo not shown) [CBK262540],112
11,N#CCCNS(=O)(=O)c1ccc(OC(F)(F)F)cc1 [CBK043560],97.9
12,CN1CCN(C)C(COc2nccc(C(F)(F)F)n2)C1 (stereo not shown) [CBK113298],95.2
13,Cc1cc(N2CCCC(COc3ccccc3F)C2)nc(N)n1 (stereo not shown) [CBK306714],74.4
14,CC(C)(C)c1ccnc(N[C@H]2CO[C@H]3[C@@H]2OC[C@@H]3NCc2ccccn2)n1 [CBK289524],86.6
15,CC1CCc2c(sc(NC(=O)c3cnccn3)c2C(N)=O)C1 (stereo not shown) [CBK265466],90.7
16,O=C(O)c1cc(NC(=O)c2cccc(N3C(=O)c4ccccc4C3=O)c2)cc(C(=O)O)c1 [CBK263338],96.8
17,O=C(COc1ccc(S(=O)(=O)N2CCCCC2)cc1)N1CCN(Cc2ccccc2)CC1 [CBK269144],87.1
18,CC1(C)Cc2ccccc2C(NC(Cc2ccccc2)C(=O)O)=N1 (stereo not shown) [CBK262533],107
19,O=C(NCC1c2ccccc2CCN1C(=O)CN1C(=O)c2ccccc2C1=O)C1CCCCC1 (stereo not shown) [CBK262582],90.6
20,S=C(Nc1ccc(Nc2ccccc2)cc1)N1CCN(Cc2ccc3c(c2)OCO3)CC1 [CBK266141],96.7
